Measured values from the supplement of paper PMC10307832.

How the values were obtained:
Assay in all cases: relative viability (nuclei count vs DMSO), 5 days (fraction); higher = more cells survive
Vismodegib + Vorinostat = compound: CS(=O)(=O)c1ccc(C(=O)Nc2ccc(Cl)c(-c3ccccn3)c2)c(Cl)c1 [Vismodegib] + O=C(CCCCCCC(=O)Nc1ccccc1)NO [Vorinostat] (partner 1 µM)
Method in brief: (§1)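 One day after seeding in 1536-well plates, lung cancer cell lines were dosed by pin tool. Dosing was either single-drug or a fixed anchor-drug dose plus five library-drug doses (not always all listed) in √10 steps. After 5 days, nuclei were stained in one fix-and-stain step and counted on 4× images, and relative viability is the nuclei count of treated wells over that of vehicle wells, given as the median of duplicate plates.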

Vismodegib + Decitabine = compound: CS(=O)(=O)c1ccc(C(=O)Nc2ccc(Cl)c(-c3ccccn3)c2)c(Cl)c1 [Vismodegib] + Nc1ncn([C@H]2C[C@H](O)[C@@H](CO)O2)c(=O)n1 [Decitabine] (partner 2 µM)
Method in brief: as §1

Ruxolitinib + Bortezomib = compound: N#CC[C@H](C1CCCC1)n1cc(-c2ncnc3[nH]ccc23)cn1 [Ruxolitinib] + CC(C)C[C@H](NC(=O)[C@H](Cc1ccccc1)NC(=O)c1cnccn1)B(O)O [Bortezomib] (partner 0.002 µM)
Method in brief: as §1

VE-821 + Luminespib = compound: CS(=O)(=O)c1ccc(-c2cnc(N)c(C(=O)Nc3ccccc3)n2)cc1 [VE-821] + CCNC(=O)c1noc(-c2cc(C(C)C)c(O)cc2O)c1-c1ccc(CN2CCOCC2)cc1 [Luminespib] (partner 0.01 µM)
Method in brief: as §1

## HCC-366
Vismodegib + Vorinostat; first compound 0.08 µM
  relative viability: 0.46
Vismodegib + Vorinostat; first compound 0.253 µM
  relative viability: 0.37
Vismodegib + Vorinostat; first compound 0.8 µM
  relative viability: 0.25
Vismodegib + Vorinostat; first compound 2.53 µM
  relative viability: 0.354
Vismodegib + Vorinostat; first compound 8 µM
  relative viability: 0.285
Vismodegib + Decitabine; first compound 0.08 µM
  relative viability: 0.374
Vismodegib + Decitabine; first compound 0.253 µM
  relative viability: 0.283
Vismodegib + Decitabine; first compound 0.8 µM
  relative viability: 0.377
Vismodegib + Decitabine; first compound 2.53 µM
  relative viability: 0.331
Vismodegib + Decitabine; first compound 8 µM
  relative viability: 0.311
Ruxolitinib + Bortezomib; first compound 0.08 µM
  relative viability: 1.03
Ruxolitinib + Bortezomib; first compound 0.253 µM
  relative viability: 0.987
Ruxolitinib + Bortezomib; first compound 0.8 µM
  relative viability: 1.16
Ruxolitinib + Bortezomib; first compound 2.53 µM
  relative viability: 1.01
Ruxolitinib + Bortezomib; first compound 8 µM
  relative viability: 0.845

## HCC-827
Vismodegib + Vorinostat; first compound 0.08 µM
  relative viability: 0.878
Vismodegib + Vorinostat; first compound 0.253 µM
  relative viability: 0.903
Vismodegib + Vorinostat; first compound 0.8 µM
  relative viability: 0.909
Vismodegib + Vorinostat; first compound 2.53 µM
  relative viability: 0.774
Vismodegib + Vorinostat; first compound 8 µM
  relative viability: 0.861
VE-821 + Luminespib; first compound 0.08 µM
  relative viability: 0.599
VE-821 + Luminespib; first compound 0.253 µM
  relative viability: 0.686
VE-821 + Luminespib; first compound 0.8 µM
  relative viability: 0.277
VE-821 + Luminespib; first compound 2.53 µM
  relative viability: 0.696
VE-821 + Luminespib; first compound 8 µM
  relative viability: 0.489
Vismodegib + Decitabine; first compound 0.08 µM
  relative viability: 0.326
Vismodegib + Decitabine; first compound 0.253 µM
  relative viability: 0.333
Vismodegib + Decitabine; first compound 0.8 µM
  relative viability: 0.34
Vismodegib + Decitabine; first compound 2.53 µM
  relative viability: 0.302
Vismodegib + Decitabine; first compound 8 µM
  relative viability: 0.353
Ruxolitinib + Bortezomib; first compound 0.08 µM
  relative viability: 1.05
Ruxolitinib + Bortezomib; first compound 0.253 µM
  relative viability: 0.993
Ruxolitinib + Bortezomib; first compound 0.8 µM
  relative viability: 1.01
Ruxolitinib + Bortezomib; first compound 2.53 µM
  relative viability: 0.881
Ruxolitinib + Bortezomib; first compound 8 µM
  relative viability: 0.798

## HOP-62
Vismodegib + Vorinostat; first compound 0.08 µM
  relative viability: 0.681
Vismodegib + Vorinostat; first compound 0.253 µM
  relative viability: 0.591
Vismodegib + Vorinostat; first compound 0.8 µM
  relative viability: 0.535
Vismodegib + Vorinostat; first compound 2.53 µM
  relative viability: 0.58
Vismodegib + Vorinostat; first compound 8 µM
  relative viability: 0.469
VE-821 + Luminespib; first compound 0.08 µM
  relative viability: 0.966
VE-821 + Luminespib; first compound 0.253 µM
  relative viability: 0.822
VE-821 + Luminespib; first compound 0.8 µM
  relative viability: 0.981
VE-821 + Luminespib; first compound 2.53 µM
  relative viability: 0.694
VE-821 + Luminespib; first compound 8 µM
  relative viability: 0.596
Vismodegib + Decitabine; first compound 0.08 µM
  relative viability: 0.227
Vismodegib + Decitabine; first compound 0.253 µM
  relative viability: 0.22
Vismodegib + Decitabine; first compound 0.8 µM
  relative viability: 0.208
Vismodegib + Decitabine; first compound 2.53 µM
  relative viability: 0.22
Vismodegib + Decitabine; first compound 8 µM
  relative viability: 0.183
Ruxolitinib + Bortezomib; first compound 0.253 µM
  relative viability: 0.719
Ruxolitinib + Bortezomib; first compound 0.8 µM
  relative viability: 1.15
Ruxolitinib + Bortezomib; first compound 2.53 µM
  relative viability: 0.856
Ruxolitinib + Bortezomib; first compound 8 µM
  relative viability: 0.763

## IA-LM
Vismodegib + Vorinostat; first compound 0.08 µM
  relative viability: 0.735
Vismodegib + Vorinostat; first compound 0.253 µM
  relative viability: 0.951
Vismodegib + Vorinostat; first compound 0.8 µM
  relative viability: 0.843
Vismodegib + Vorinostat; first compound 2.53 µM
  relative viability: 0.947
Vismodegib + Vorinostat; first compound 8 µM
  relative viability: 1.03
Ruxolitinib + Bortezomib; first compound 0.08 µM
  relative viability: 0.998
Ruxolitinib + Bortezomib; first compound 0.253 µM
  relative viability: 0.931
Ruxolitinib + Bortezomib; first compound 0.8 µM
  relative viability: 0.971
Ruxolitinib + Bortezomib; first compound 2.53 µM
  relative viability: 0.917
Ruxolitinib + Bortezomib; first compound 8 µM
  relative viability: 0.61

## LC-2-ad
Vismodegib + Vorinostat; first compound 0.08 µM
  relative viability: 0.7
Vismodegib + Vorinostat; first compound 0.253 µM
  relative viability: 0.729
Vismodegib + Vorinostat; first compound 0.8 µM
  relative viability: 0.701
Vismodegib + Vorinostat; first compound 2.53 µM
  relative viability: 0.667
Vismodegib + Vorinostat; first compound 8 µM
  relative viability: 0.529
VE-821 + Luminespib; first compound 0.08 µM
  relative viability: 1.18
VE-821 + Luminespib; first compound 0.253 µM
  relative viability: 1.09
VE-821 + Luminespib; first compound 0.8 µM
  relative viability: 1.19
VE-821 + Luminespib; first compound 2.53 µM
  relative viability: 1.24
VE-821 + Luminespib; first compound 8 µM
  relative viability: 1
Vismodegib + Decitabine; first compound 0.08 µM
  relative viability: 0.746
Vismodegib + Decitabine; first compound 0.253 µM
  relative viability: 0.717
Vismodegib + Decitabine; first compound 0.8 µM
  relative viability: 0.834
Vismodegib + Decitabine; first compound 2.53 µM
  relative viability: 0.693
Vismodegib + Decitabine; first compound 8 µM
  relative viability: 0.777
Ruxolitinib + Bortezomib; first compound 0.08 µM
  relative viability: 1.04
Ruxolitinib + Bortezomib; first compound 0.253 µM
  relative viability: 0.861
Ruxolitinib + Bortezomib; first compound 0.8 µM
  relative viability: 1.22
Ruxolitinib + Bortezomib; first compound 2.53 µM
  relative viability: 0.98
Ruxolitinib + Bortezomib; first compound 8 µM
  relative viability: 0.609

## LCLC-97TM1
Vismodegib + Vorinostat; first compound 0.08 µM
  relative viability: 0.731
Vismodegib + Vorinostat; first compound 0.253 µM
  relative viability: 0.64
Vismodegib + Vorinostat; first compound 0.8 µM
  relative viability: 0.656
Vismodegib + Vorinostat; first compound 2.53 µM
  relative viability: 0.632
Vismodegib + Vorinostat; first compound 8 µM
  relative viability: 0.42
VE-821 + Luminespib; first compound 0.08 µM
  relative viability: 0.821
VE-821 + Luminespib; first compound 0.253 µM
  relative viability: 0.795
VE-821 + Luminespib; first compound 0.8 µM
  relative viability: 0.952
VE-821 + Luminespib; first compound 2.53 µM
  relative viability: 0.993
VE-821 + Luminespib; first compound 8 µM
  relative viability: 0.709
Vismodegib + Decitabine; first compound 0.08 µM
  relative viability: 0.214
Vismodegib + Decitabine; first compound 0.253 µM
  relative viability: 0.25
Vismodegib + Decitabine; first compound 0.8 µM
  relative viability: 0.351
Vismodegib + Decitabine; first compound 2.53 µM
  relative viability: 0.229
Vismodegib + Decitabine; first compound 8 µM
  relative viability: 0.223
Ruxolitinib + Bortezomib; first compound 0.08 µM
  relative viability: 0.407
Ruxolitinib + Bortezomib; first compound 0.253 µM
  relative viability: 0.69
Ruxolitinib + Bortezomib; first compound 0.8 µM
  relative viability: 0.635
Ruxolitinib + Bortezomib; first compound 2.53 µM
  relative viability: 0.906
Ruxolitinib + Bortezomib; first compound 8 µM
  relative viability: 0.526

## LCLC-103H
Vismodegib + Vorinostat; first compound 0.08 µM
  relative viability: 0.74
Vismodegib + Vorinostat; first compound 0.253 µM
  relative viability: 0.733
Vismodegib + Vorinostat; first compound 0.8 µM
  relative viability: 0.613
Vismodegib + Vorinostat; first compound 2.53 µM
  relative viability: 0.749
Vismodegib + Vorinostat; first compound 8 µM
  relative viability: 0.539
VE-821 + Luminespib; first compound 0.08 µM
  relative viability: 1.1
VE-821 + Luminespib; first compound 0.253 µM
  relative viability: 0.925
VE-821 + Luminespib; first compound 0.8 µM
  relative viability: 0.898
VE-821 + Luminespib; first compound 2.53 µM
  relative viability: 0.947
VE-821 + Luminespib; first compound 8 µM
  relative viability: 0.718
Vismodegib + Decitabine; first compound 0.08 µM
  relative viability: 0.74
Vismodegib + Decitabine; first compound 0.253 µM
  relative viability: 0.755
Vismodegib + Decitabine; first compound 0.8 µM
  relative viability: 0.768
Vismodegib + Decitabine; first compound 2.53 µM
  relative viability: 0.726
Vismodegib + Decitabine; first compound 8 µM
  relative viability: 0.735
Ruxolitinib + Bortezomib; first compound 0.08 µM
  relative viability: 0.922
Ruxolitinib + Bortezomib; first compound 0.253 µM
  relative viability: 1.17
Ruxolitinib + Bortezomib; first compound 0.8 µM
  relative viability: 1.04
Ruxolitinib + Bortezomib; first compound 2.53 µM
  relative viability: 1.15
Ruxolitinib + Bortezomib; first compound 8 µM
  relative viability: 0.951

## LK-2
Vismodegib + Vorinostat; first compound 0.08 µM
  relative viability: 0.246
Vismodegib + Vorinostat; first compound 0.253 µM
  relative viability: 0.31
Vismodegib + Vorinostat; first compound 0.8 µM
  relative viability: 0.294
Vismodegib + Vorinostat; first compound 2.53 µM
  relative viability: 0.286
Vismodegib + Vorinostat; first compound 8 µM
  relative viability: 0.239
VE-821 + Luminespib; first compound 0.08 µM
  relative viability: 0.18
VE-821 + Luminespib; first compound 0.253 µM
  relative viability: 0.182
VE-821 + Luminespib; first compound 0.8 µM
  relative viability: 0.149
VE-821 + Luminespib; first compound 2.53 µM
  relative viability: 0.205
VE-821 + Luminespib; first compound 8 µM
  relative viability: 0.181
Vismodegib + Decitabine; first compound 0.08 µM
  relative viability: 0.356
Vismodegib + Decitabine; first compound 0.253 µM
  relative viability: 0.253
Vismodegib + Decitabine; first compound 0.8 µM
  relative viability: 0.282
Vismodegib + Decitabine; first compound 2.53 µM
  relative viability: 0.283
Vismodegib + Decitabine; first compound 8 µM
  relative viability: 0.28

## NCI-H358
Vismodegib + Vorinostat; first compound 0.08 µM
  relative viability: 0.831
Vismodegib + Vorinostat; first compound 0.253 µM
  relative viability: 0.677
Vismodegib + Vorinostat; first compound 0.8 µM
  relative viability: 0.696
Vismodegib + Vorinostat; first compound 2.53 µM
  relative viability: 0.68
Vismodegib + Vorinostat; first compound 8 µM
  relative viability: 0.728
VE-821 + Luminespib; first compound 0.08 µM
  relative viability: 0.62
VE-821 + Luminespib; first compound 0.253 µM
  relative viability: 0.307
VE-821 + Luminespib; first compound 0.8 µM
  relative viability: 0.334
VE-821 + Luminespib; first compound 2.53 µM
  relative viability: 0.537
VE-821 + Luminespib; first compound 8 µM
  relative viability: 1.49
Vismodegib + Decitabine; first compound 0.08 µM
  relative viability: 0.21
Vismodegib + Decitabine; first compound 0.253 µM
  relative viability: 0.228
Vismodegib + Decitabine; first compound 0.8 µM
  relative viability: 0.21
Vismodegib + Decitabine; first compound 2.53 µM
  relative viability: 0.256
Vismodegib + Decitabine; first compound 8 µM
  relative viability: 0.225

## NCI-H522
Vismodegib + Vorinostat; first compound 0.08 µM
  relative viability: 1.02
Vismodegib + Vorinostat; first compound 0.253 µM
  relative viability: 0.886
Vismodegib + Vorinostat; first compound 0.8 µM
  relative viability: 0.808
Vismodegib + Vorinostat; first compound 2.53 µM
  relative viability: 0.941
Vismodegib + Vorinostat; first compound 8 µM
  relative viability: 0.806
VE-821 + Luminespib; first compound 0.08 µM
  relative viability: 1.11
VE-821 + Luminespib; first compound 0.253 µM
  relative viability: 1.21
VE-821 + Luminespib; first compound 0.8 µM
  relative viability: 0.958
VE-821 + Luminespib; first compound 2.53 µM
  relative viability: 0.997
VE-821 + Luminespib; first compound 8 µM
  relative viability: 0.897
Vismodegib + Decitabine; first compound 0.08 µM
  relative viability: 0.634
Vismodegib + Decitabine; first compound 0.253 µM
  relative viability: 0.64
Vismodegib + Decitabine; first compound 0.8 µM
  relative viability: 0.637
Vismodegib + Decitabine; first compound 2.53 µM
  relative viability: 0.686
Vismodegib + Decitabine; first compound 8 µM
  relative viability: 0.621
